Measurements from ChEMBL document CHEMBL1151789, “Molecular modeling studies toward the structural optimization of new cyclopeptide-based HDAC inhibitors modeled on the natural product FR235222” (Bioorg Med Chem, 2008).

Experiment: Inhibition of HDLP

| Structure (SMILES) | Ki [nM] | IC50 [nM] |
| --- | --- | --- |
| C[C@@H](O)C(=O)CCCCC[C@@H]1NC(=O)[C@@H]2CCCN2C(=O)[C@H](Cc2ccccc2)NC(=O)[C@H](Cc2ccccc2)NC1=O | 82.1 | – |
| C[C@@H](O)C(=O)CCCCC[C@@H]1NC(=O)[C@@H]2CCCN2C(=O)[C@H](Cc2ccccc2)NC(=O)[C@H](Cc2c[nH]c3ccccc23)NC1=O | 7.77 | – |
| C[C@H](O)C(=O)CCCCC[C@@H]1NC(=O)[C@H]2CCCN2C(=O)[C@H](Cc2ccccc2)NC(=O)[C@H](Cc2cnc[nH]2)NC1=O | 34.2 | 350000 |
| C[C@@H](O)C(=O)CCCCC[C@@H]1NC(=O)[C@H]2CCCN2C(=O)[C@H](Cc2ccccc2)NC(=O)[C@H](Cc2ccccc2)NC1=O | 36.9 | 280 |
| C[C@@H](O)C(=O)CCCCC[C@@H]1NC(=O)[C@H]2CCCN2C(=O)[C@H](Cc2ccccc2)NC(=O)[C@H](Cc2c[nH]c3ccccc23)NC1=O | 0.987 | 20 |
| C[C@H](O)C(=O)CCCCC[C@@H]1NC(=O)[C@@H]2CCCN2C(=O)[C@H](Cc2ccccc2)NC(=O)[C@H](Cc2ccc(Cl)cc2)NC1=O | 23.4 | – |
| C[C@H](O)C(=O)CCCCC[C@@H]1NC(=O)[C@H]2CCCN2C(=O)[C@H](Cc2ccccc2)NC(=O)[C@H](Cc2ccc(Cl)cc2)NC1=O | 87.1 | – |
| CC[C@]1(C)NC(=O)[C@H](CCCCCC(=O)[C@@H](C)O)NC(=O)[C@H]2CC(C)(C)CN2C(=O)[C@H](Cc2ccccc2)NC1=O | 60.4 | 90 |
| CC[C@]1(C)NC(=O)[C@H](CCCCCC(=O)[C@@H](C)O)NC(=O)[C@H]2CCCN2C(=O)[C@H](Cc2ccccc2)NC1=O | 18.6 | 50 |
| C[C@H](O)C(=O)CCCCC[C@@H]1NC(=O)[C@H]2CCCN2C(=O)[C@H](Cc2ccccc2)NC(=O)C(C)(C)NC1=O | 194 | 330 |
| C[C@@H](O)C(=O)CCCCC[C@@H]1NC(=O)[C@H]2CCCN2C(=O)[C@H](Cc2ccccc2)NC(=O)C(C)(C)NC1=O | 16.4 | 30 |
| CC[C@]1(C)NC(=O)[C@H](CCCCCC(=O)[C@@H](C)O)NC(=O)[C@@H]2CC(C)(C)CN2C(=O)[C@H](Cc2ccccc2)NC1=O | 45.8 | – |
| C[C@H](O)C(=O)CCCCC[C@@H]1NC(=O)[C@@H]2CCCN2C(=O)[C@H](Cc2ccccc2)NC(=O)C2(CCCCC2)NC1=O | 6.79 | – |
| CC[C@@H]1NC(=O)[C@H](CCCCCC(=O)[C@H](C)O)NC(=O)[C@H]2CCCN2C(=O)[C@H](Cc2ccccc2)NC1=O | 110 | 1000 |
| C[C@@H](O)C(=O)CCCCC[C@@H]1NC(=O)[C@@H]2CCCN2C(=O)[C@H](Cc2ccccc2)NC(=O)C(C)(C)NC1=O | 10.6 | – |
| CC[C@@H]1NC(=O)[C@H](CCCCCC(=O)[C@H](C)O)NC(=O)[C@@H]2CCCN2C(=O)[C@H](Cc2ccccc2)NC1=O | 53.6 | – |
| CC[C@]1(C)NC(=O)[C@H](CCCCCC(=O)[C@@H](C)O)NC(=O)[C@@H]2CCCN2C(=O)[C@H](Cc2ccccc2)NC1=O | 12.7 | – |
| C[C@H](O)C(=O)CCCCC[C@@H]1NC(=O)[C@@H]2CCCN2C(=O)[C@H](Cc2ccccc2)NC(=O)[C@H](Cc2cnc[nH]2)NC1=O | 20 | – |
| C[C@H](O)C(=O)CCCCC[C@@H]1NC(=O)[C@H]2CCCN2C(=O)[C@H](Cc2ccccc2)NC(=O)C2(CCCCC2)NC1=O | 25.4 | 670 |
| C[C@H](O)C(=O)CCCCC[C@@H]1NC(=O)[C@@H]2CCCN2C(=O)[C@H](Cc2ccccc2)NC(=O)C(C)(C)NC1=O | 52.8 | – |
